{"source": "patent US7468380B2", "about": "“Nitrogen-containing aromatic derivatives” (Eisai R&D Management Co., Ltd., priority 2002, dated 2008)", "tested_on": "VEGF high-expressing pancreatic cancer cells (KP-1/VEGF)", "assay": "Antitumor activity on KP-1/VEGF cells in subcutaneous xenograft models", "assay_type": "in vivo, mouse", "conditions": "60 mg/kg/day, oral twice a day, 2 weeks, Balb/c (nu/nu) mice", "method": "VEGF high-expressing pancreatic cancer cells (KP-1/VEGF) suspended in PBS at a concentration of 1×10^7 cells/ml were transplanted under the right flank skin of 6-week-old female Balb/c (nu/nu) mice in a volume of 0.1 ml. When the tumor volume reached approximately 100 mm^3, the test substance was orally administered twice a day over a period of 2 weeks with a schedule of 5 days per week. The test substance was suspended in 0.5% methyl cellulose for an administered volume of 0.1 ml/10 g body weight. The tumor size was measured twice a week using a micrometer caliper. The tumor volume was determined by measuring the long and short diameters of the tumor with a micrometer caliper, and calculating ½×(long diameter×short diameter×short diameter). The experiment was conducted using 10 mice in the control (solvent-administered) group and 5 mice in each test substance-administered group."}
{"smiles": "CNC(=O)n1ccc2cc(Oc3ccnc(NC(=O)N4CCC(N5CCCC5)CC4)c3)ccc21", "note": "[Example 46, N1-Methyl-5-(2-(((4-(pyrrolidin-1-yl)piperidin-1-yl)carbonyl)amino)pyridin-4-yloxy)-1H-1-indolecarboxamide]", "values": [{"measurement": "proportion of the tumor volume to that of control", "result": 60.0, "unit": "%"}]}
